Patent US11802120B2, “Fused cyclic urea derivatives as CRHR2 antagonist” (RaQualia Pharma Inc., priority 2018, dated 2023)

target: T1, human CRHR2-alpha (Homo sapiens, UniProt Q13324); experiment: cAMP functional assay for human CRHR2 (LANCE Ultra cAMP, TR-FRET); assay type: cell-based; conditions: CHO-K1 cells expressing human CRHR2-alpha, agonist human urocortin2 at EC80, cAMP; read-out: IC50 against CRHR2
T1 sequence (Q13324 1-411): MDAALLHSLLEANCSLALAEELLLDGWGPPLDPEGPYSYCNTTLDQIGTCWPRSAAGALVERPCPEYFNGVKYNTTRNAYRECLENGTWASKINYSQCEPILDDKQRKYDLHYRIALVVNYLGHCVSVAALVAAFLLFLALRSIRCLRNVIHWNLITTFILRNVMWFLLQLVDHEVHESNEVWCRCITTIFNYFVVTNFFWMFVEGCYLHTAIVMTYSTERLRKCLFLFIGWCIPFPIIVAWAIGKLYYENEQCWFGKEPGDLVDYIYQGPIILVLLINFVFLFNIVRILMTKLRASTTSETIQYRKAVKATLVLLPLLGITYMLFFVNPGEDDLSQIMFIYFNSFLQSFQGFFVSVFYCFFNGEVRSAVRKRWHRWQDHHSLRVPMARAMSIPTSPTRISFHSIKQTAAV
Method in brief: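 First, starved and frozen CHO-K1 cells expressing the receptor are thawed into IBMX-containing HBSS buffer (pH 7.4). Next, compounds are added for 30 min at 25° C. Then agonist at EC80 (urocortin2 or CRF, per receptor) is added for another 30 min, followed by cAMP detection reagents.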

Structure (SMILES) | IC50 [nM]
O=C(N[C@H]1CC[C@H](Cn2c(=O)n(-c3ccc(N[C@@H]4CCOC4)nc3)c3ccccc32)CC1)c1cc(Cl)cnc1C(F)(F)F [Example 300, 5-chloro-N-((1R,4r)-4-((2-oxo-3-(6-(((R)-tetrahydro-furan-3-yl)amino)pyridin-3-yl)-2,3-dihydro-1H-benzo [d]imidazol-1-yl)methyl)cyclohexyl)-2-(trifluoro-methyl)nicotinamide] | < 300
Cc1cc(C)c(-n2c(=O)n(C[C@H]3CC[C@H](NC(=O)c4cc(Cl)cnc4C)CC3)c3ccccc32)cn1 [Example 330, 5-chloro-N-((1r,4r)-4-((3-(4,6-dimethylpyridin-3-yl)-2-oxo-2,3-dihydro-1H-benzo [d]imidazol-1-yl)methyl)cyclohexyl)-2-methylnico-tinamide] | < 300
Cc1ncc(Cl)cc1C(=O)N[C@H]1CC[C@H](Cn2c(=O)n(-c3ccc(-c4c[nH]cn4)cc3)c3ccccc32)CC1 [Example 667, N-((1r,4r)-4-((3-(4-(1H-imidazol-4-yl)phenyl)-2-oxo-2,3-dihydro-1H-benzo[d]imidazol-1-yl)methyl)cyclohexyl)-5-chloro-2-methylnicotinamide] | < 300
O=C(N[C@H]1CC[C@H](Cn2c(=O)n(-c3ccc(N4CCCC4=O)nc3)c3ccccc32)CC1)c1cc(Cl)cnc1C(F)(F)F [Example 641, 5-chloro-N-((1r,4r)-4-((2-oxo-3-(6-(2-oxopyrrolidin-1-yl)pyridin-3-yl)-2,3-dihydro-1H-benzo[d]imidazol-1-yl)methyl)cyclohexyl)-2-(trifluoromethyl) nicotinamide] | < 300
Cc1ncc(Cl)cc1C(=O)N[C@H]1CC[C@H](Cn2c(=O)n(-c3ccc(C(=O)Nc4cncnc4)nc3)c3ccccc32)CC1 [Example 178, 5-(3-(((1r,4r)-4-(5-chloro-2-methylnicotinamido)cyclo-hexyl)methyl)-2-oxo-2,3-dihydro-1H-benzo[d]imidazol-1-yl)-N-(pyrimidin-5-yl) picolinamide] | < 300
N#Cc1ncccc1-n1c(=O)n(C[C@H]2CC[C@H](NC(=O)c3cc(Cl)cnc3C(F)(F)F)CC2)c2ccccc21 [Example 293, 5-chloro-N-((1r,4r)-4-((3-(2-cyanopyridin-3-yl)-2-oxo-2,3-dihydro-1H-benzo [d]imidazol-1-yl)methyl)cyclohexyl)-2-(trifluoro-methyl)nicotinamide] | < 300
COCCOc1cncc(-n2c(=O)n(C[C@H]3CC[C@H](NC(=O)c4cc(Cl)cnc4C)CC3)c3ccccc32)c1 [Example 486, 5-chloro-N-((1r,4r)-4-((3-(5-(2-methoxyethoxy)pyridin-3-yl)-2-oxo-2,3-dihydro-1H-benzo[d]imidazol-1-yl)methyl)cyclo-hexyl)-2-methylnicotinamide] | < 300
O=C(N[C@H]1CC[C@H](Cn2c(=O)n(-c3ccc(N4CCCC4=O)cn3)c3ccccc32)CC1)c1cc(Cl)cnc1C(F)F [Example 767, 5-chloro-2-(difluoromethyl)-N-((1r,4r)-4-((2-oxo-3-(5-(2-oxopyrrolidin-1-yl)pyridin-2-yl)-2,3-dihydro-1H-benzo [d]imidazol-1-yl)methyl)cyclohexyl)nicotinamide] | < 300
Cc1ncc(Cl)cc1C(=O)N[C@H]1CC[C@H](Cn2c(=O)n(-c3ccc(C(=O)Nc4cccnn4)nc3)c3ccccc32)CC1 [Example 175, 5-(3-(((1r,4r)-4-(5-chloro-2-methylnicotinamido)cyclo-hexyl)methyl)-2-oxo-2,3-dihydro-1H-benzo[d]imidazol-1-yl)-N-(pyridazin-3-yl) picolinamide] | < 300
Cn1ccc(-c2ccc(-n3c(=O)n(C[C@H]4CC[C@H](NC(=O)c5cc(Cl)cnc5C(F)(F)F)CC4)c4ccccc43)cn2)n1 [Example 777, 5-chloro-N-((1r,4r)-4-((3-(6-(1-methyl-1H-pyrazol-3-yl)pyridin-3-yl)-2-oxo-2,3-dihydro-1H-benzo[d]imidazol-1-yl)methyl)cyclohexyl)-2-(trifluoromethyl)nicotinamide] | < 300
O=C(N[C@H]1CC[C@H](Cn2c(=O)n(-c3cnc4ncccc4c3)c3ccccc32)CC1)c1cc(Cl)cnc1C(F)F [Example 393, N-((1r,4r)-4-((3-(1,8-naph-thyridin-3-yl)-2-oxo-2,3-dihydro-1H-benzo[d]imidazol-1-yl)methyl)cyclohexyl)-5-chloro-2-(difluoromethyl) nicotinamide] | < 300

More lines, now with the values ahead:

IC50 [nM] | Structure (SMILES)
< 300 | CNc1cc(C)c(-n2c(=O)n(C[C@H]3CC[C@H](NC(=O)c4cc(Cl)cnc4C(F)(F)F)CC3)c3ccccc32)cn1 [Example 545, 5-chloro-N-((1r,4r)-4-((3-(4-methyl-6-(methylamino)pyridin-3-yl)-2-oxo-2,3-dihydro-1H-benzo[d]imidazol-1-yl)methyl)cyclohexyl)-2-(trifluoromethyl)nicotinamide]
< 300 | Cc1ncc(Cl)cc1C(=O)N[C@H]1CC[C@H](Cn2c(=O)n(-c3cnc4c(c3)c(C)cn4C)c3ccccc32)CC1 [Example 409, 5-chloro-N-((1r,4r)-4-((3-(1,3-dimethyl-1H-pyrrolo[2,3-b]pyridin-5-yl)-2-oxo-2,3-dihydro-1H-benzo[d]imidazol-1-yl)methyl)cyclohexyl)-2-methylnicotinamide]
< 300 | Cc1ncc(Cl)cc1C(=O)N[C@H]1CC[C@H](Cn2c(=O)n(-c3cnc4c(cnn4CC4CC4)c3)c3ccccc32)CC1 [Example 252, 5-chloro-N-((1r,4r)-4-((3-(1-(cyclopropylmethyl)-1H-pyrazolo[3,4-b]pyridin-5-yl)-2-oxo-2,3-dihydro-1H-benzo [d]imidazol-1-yl)methyl)cyclo-hexyl)-2-methylnicotinamide]
< 300 | Cc1ncc(Cl)cc1C(=O)N[C@H]1CC[C@H](Cn2c(=O)n(-c3ccc(N(C)C)nc3)c3ccccc32)CC1 [Example 52, 5-chloro-N-((1r,4r)-4-((3-(6-(dimethylamino)pyridin-3-yl)-2-oxo-2,3-dihydro-1H-benzo[d]imidazol-1-yl)methyl)cyclohexyl)-2-methylnicotinamide]
< 300 | Cc1ncc(Cl)cc1C(=O)N[C@H]1CC[C@H](Cn2c(=O)n(-c3cnc4c(c3)oc(=O)n4C)c3ccccc32)CC1 [Example 215, 5-chloro-2-methyl-N-((1r,4r)-4-((3-(3-methyl-2-oxo-2,3-dihydrooxazolo[4,5-b]pyridin-6-yl)-2-oxo-2,3-dihydro-1H-benzo[d]imidazol-1-yl)methyl)cyclohexyl)nicotinamide]
< 300 | N#Cc1ccncc1-n1c(=O)n(C[C@H]2CC[C@H](NC(=O)c3cc(Cl)cnc3C(F)F)CC2)c2ccccc21 [Example 373, 5-chloro-N-((1r,4r)-4-((3-(4-cyanopyridin-3-yl)-2-oxo-2,3-dihydro-1H-benzo[d]imidazol-1-yl)methyl)cyclohexyl)-2-(difluoromethyl)nicotinamide]
< 300 | O=C(N[C@H]1CC[C@H](Cn2c(=O)n(-c3ccc(N4CCNC4=O)cn3)c3ccccc32)CC1)c1cc(Cl)cnc1C(F)F [Example 717, 5-chloro-2-(difluoromethyl)-N-((1r,4r)-4-((2-oxo-3-(5-(2-oxoimidazolidin-1-yl)pyridin-2-yl)-2,3-dihydro-1H-benzo [d]imidazol-1-yl)methyl)cyclo-hexyl)nicotinamide]
